The text below walks through data of patent US12180226B2, “Spirotricycle RIPK1 inhibitors and methods of uses thereof” (Merck Sharp & Dohme LLC, priority 2021, dated 2024).

In general, EC50 refers to the concentration needed to bring the measured effect to its halfway point.

Structures can show the parent of a compound that is named as a salt. Bounds are passed on as bounds.

RIPK1 (recombinant GST-RIPK1 kinase domain, residues 1-327), sequence (Q13546 1-327): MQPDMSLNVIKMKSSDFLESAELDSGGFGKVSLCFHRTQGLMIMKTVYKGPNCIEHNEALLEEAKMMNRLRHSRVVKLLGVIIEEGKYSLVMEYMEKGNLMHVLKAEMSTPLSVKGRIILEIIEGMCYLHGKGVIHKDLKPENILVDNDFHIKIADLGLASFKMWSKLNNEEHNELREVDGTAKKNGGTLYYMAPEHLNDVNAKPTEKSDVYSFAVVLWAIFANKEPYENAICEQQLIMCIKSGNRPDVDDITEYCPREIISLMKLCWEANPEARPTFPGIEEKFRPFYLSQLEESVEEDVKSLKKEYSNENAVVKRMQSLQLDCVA

This assay concerns the target RIPK1 (recombinant GST-RIPK1 kinase domain, residues 1-327) (Homo sapiens (Human), UniProt Q13546). Nature of the assay: RIPK1-ADP-Glo Enzymatic Assay. It counts as biochemical. The note with it: ADP-Glo; 25 nM GST-RIPK1, 300 μM ATP; assay lower limit ~25 nM; read-out: RIPK1 V0 Ec50. In a few lines:
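Enzyme from baculovirus-infected Sf21 cells, 25 nM final, was pre-incubated 30 min at ambient temperature with compound (ten-point, 1:3 dilution from 100000 nM, 1% DMSO), then reacted 150 min with 300 μM ATP and 3 μM dephosphorylated MBP. ADP was read by luminescence; EC50 from four-parameter fit.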
For orientation: In ADP-Glo the light output rises with the ADP produced.
For the molecule `O=C(c1ncc(F)cc1F)N1CCC2(CC1)O[C@@H]1CC[C@@H](c3cc(F)cc(F)c3)N1C2=O` [Example 6.89, (5′S,7a′R)-5′-(3,5-difluorophenyl)-1-(3,5-difluoropyridine-2-carbonyl)tetrahydro-3′H-spiro[piperidine-4,2′-pyrrolo[2,1-b] [1,3]oxazol]-3′-one], the EC50 is 35.4 nM.

As for `N#Cc1ccc(N2CCC3(CC2)O[C@@H]2CC[C@@H](c4cc(F)cc(F)c4)N2C3=O)c(F)c1` [Example 4.24, 4-[(5′S,7a′R)-5′-(3,5-difluorophenyl)-3′-oxotetrahydro-1H,3′H-spiro[piperidine-4,2′-pyrrolo[2,1-b] [1,3]oxazol]-1-yl]-3-fluorobenzonitrile], the EC50 is < 25 nM.

Turning to `COC1(C)CN(C(=O)c2nc(N3CCC4(CC3)O[C@@H]3CC[C@@H](c5cc(F)cc(F)c5)N3C4=O)ncc2F)C1` [Example 7.6, (5′S,7a′R)-5′-(3,5-difluorophenyl)-1-[5-fluoro-4-(3-methoxy-3-methylazetidine-1-carbonyl)pyrimidin-2-yl]tetrahydro-3′H-spiro[piperidine-4,2′-pyrrolo[2,1-b][1,3]oxazol]-3′-one], the EC50 amounted to 271 nM.

In the case of `O=C(c1cccc(F)c1)N1CCC2(CC1)O[C@@H]1CC[C@@H](c3cccc(F)c3)N1C2=O` [Example 6.116, (5′S,7a′R)-1-(3-fluoro-benzene-1-carbonyl)-5′-(3-fluorophenyl)-tetrahydro-3′H-spiro [piperidine-4,2′-pyrrolo[2,1-b][1,3]oxazol]-3′-one], the EC50 is < 25 nM.

As to `N#Cc1cc(N2CCC3(CC2)O[C@@H]2CC[C@@H](c4ccccc4)N2C3=O)ncn1` [Example 4.40, 6-[(5′S,7a′R)-3′-oxo-5′-phenyltetrahydro-1H,3′H-spiro[piperidine-4,2′-pyrrolo[2,1-b] [1,3]oxazol]-1-yl]pyrimidine-4-carbonitrile], the concentration giving a half-maximal response (EC50) was 32.2 nM.

For the molecule `C[C@@]12CC[C@@H](c3ccccc3)N1C(=O)C1(CCN(c3ccnc4c(F)cnn34)CC1)O2` [Example 4.81, (5′S,7a′R)-1-(3-fluoropyrazolo[1,5-a]pyrimidin-7-yl)-7a′-methyl-5′-phenyltetrahydro-3′H-spiro[piperidine-4,2′-pyrrolo[2,1-b] [1,3]oxazol]-3′-one], the EC50 worked out at 51.2 nM.

Regarding `CC1CN(c2cc(C#N)ncn2)CCC12O[C@@H]1CC[C@@H](c3ccccc3)N1C2=O` (stereo partly drawn) [Example 4.237, 6-[(4R,5′S,7a′R)-3-methyl-3′-oxo-5′-phenyltetrahydro-1H,3′H-spiro[piperidine-4,2′-pyrrolo[2,1-b] [1,3]oxazol]-1-yl]pyrimidine-4-carbonitrile], the EC50 is < 25 nM.

Turning to `O=C(c1ccccc1)N1CCC2(CC1)O[C@@H]1[C@@H](F)C[C@@H](c3ccccc3)N1C2=O` [Example 6.108, (5′S,7′S,7a′R)-1-(benzenecarbonyl)-7′-fluoro-5′-phenyl-tetrahydro-3′H-spiro [piperidine-4,2′-pyrrolo[2,1-b][1,3]-oxazol]-3′-one], the EC50 turned out to be 43.8 nM.

On to `Cc1ncc(C)c(N2CCC3(CC2)O[C@@H]2CC[C@@H](c4ccccc4)N2C3=O)n1` [Example 11.34, (5′S,7a′R)-1-(2,5-dimethylpyrimidin-4-yl)-5′-phenyltetrahydro-3′H-spiro[piperidine-4,2′-pyrrolo[2,1-b][1,3]oxazol]-3′-one], for which the EC50 is 601 nM.

As for `N#Cc1cncc([C@@H]2CC[C@H]3SC4(CCN(c5ccnc6c(F)cnn56)CC4)C(=O)N32)c1` [Example 4.112, 5-[(5′S,7a′R)-1-(3-fluoropyrazolo[1,5-a]pyrimidin-7-yl)-3′-oxotetrahydro-3′H-spiro[piperidine-4,2′-pyrrolo[2,1-b] [1,3]thiazol]-5′-yl]pyridine-3-carbonitrile], the concentration giving a half-maximal response (EC50) was < 25 nM.

Consider `C#Cc1cnc(N2CCC3(CC2)O[C@@H]2CC[C@@H](c4ccccc4)N2C3=O)n2ncnc12` [Example 21.23, (5′S,7a′R)-1-(8-ethynyl[1,2,4]triazolo [1,5-c]pyrimidin-5-yl)-5′-phenyltetrahydro-3′H-spiro[piperidine-4,2′-pyrrolo[2,1-b][1,3]oxazol]-3′-one], for which the EC50 was < 25 nM.

Regarding `Cc1cc(N2CCC3(CC2)O[C@@H]2CC[C@@H](c4ccccc4)N2C3=O)ncc1[N+](=O)[O-]` [Example 4.207, (5′S,7a′R)-1-(4-methyl-5-nitropyridin-2-yl)-5′-phenyltetrahydro-3′H-spiro[piperidine-4,2′-pyrrolo[2,1-b] [1,3]oxazol]-3′-one], the EC50 is < 25 nM.

In the case of `O=C1N2[C@@H](CC[C@H]2c2ccccc2F)OC12CCN(c1ccnc3ccnn13)CC2` [Example 4.103, (5′S,7a′R)-5′-(2-fluorophenyl)-1-(pyrazolo[1,5-a]pyrimidin-7-yl)tetrahydro-3′H-spiro[piperidine-4,2′-pyrrolo[2,1-b]oxazol]-3′-one], the EC50 was < 25 nM.

Turning to `CCOc1cccc(C(=O)N2CCC3(CC2)O[C@@H]2CC[C@@H](c4ccccc4)N2C3=O)c1` [Example 6.139, (5′S,7a′R)-1-(3-ethoxybenzene-1-carbonyl)-5′-phenyl-tetrahydro-3′H-spiro [piperidine-4,2′-pyrrolo[2,1-b][1,3]-oxazol]-3′-one], the EC50 is < 25 nM.

As to `N#Cc1cc(C(=O)N2CCC3(CC2)O[C@@H]2CC[C@@H](c4ccccc4)N2C3=O)ccc1F` [Example 6.138, 2-fluoro-5-[(5′S,7a′R)-3′-oxo-5′-phenyl-tetrahydro-1H,3′H-spiro[piperidine-4,2′-pyrrolo[2,1-b][1,3]-oxazole]-1-carbonyl]-benzonitrile], the EC50 was < 25 nM.

As for `O=C1N2C(=NC13CCN(c1ccnc4c(F)cnn14)CC3)CC[C@H]2c1cc(F)cc(F)c1` [Example 4.79, (S)-5′-(3,5-difluorophenyl)-1-(3-fluoropyrazolo[1,5-a]pyrimidin-7-yl)-6′,7′-dihydro-3′H,5′H-spiro[piperidine-4,2′-pyrrolo[1,2-a]imidazol]-3′-one], the EC50 was < 25 nM.

For `N#Cc1ccc(N2CCC3(CC2)S[C@@H]2CC[C@@H](c4ccccc4)N2C3=O)n2nccc12` [Example 4.145, 7-[(5′S,7a′R)-3′-oxo-5′-phenyltetrahydro-1H,3′H-spiro[piperidine-4,2′-pyrrolo[2,1-b] [1,3]thiazol]-1-yl]pyrazolo[1,5-a] pyridine-4-carbonitrile], the EC50 was < 25 nM.

On to `CCc1ccc(N2CCC3(CC2)O[C@@H]2CC[C@@H](c4ccccc4)N2C3=O)n2ncnc12` [Example 4.221, (5′S,7a′R)-1-(8-ethyl[1,2,4]triazolo[1,5-a]pyridin-5-yl)-5′-phenyltetrahydro-3′H-spiro[piperidine-4,2′-pyrrolo[2,1-b] [1,3]oxazol]-3′-one], for which the EC50 was < 25 nM.

In the case of `Cc1ncc([C@@H]2CC[C@H]3OC4(CCN(C(=O)c5ccccc5)CC4F)C(=O)N32)cc1F` (stereo partly drawn) [Example 2.9, (5′S,7a′R)-1-(benzenecarbonyl)-3-fluoro-5′-(5-fluoro-6-methylpyridin-3-yl)tetrahydro-3′H-spiro[piperidine-4,2′-pyrrolo[2,1-b][1,3]oxazol]-3′-one], the EC50 was 106 nM.

With `O=C1N2[C@@H](CC[C@H]2C2CCCCC2)OC12CCN(c1ccnc3c(F)cnn13)CC2` [Example 4.87, (5′S,7a′R)-5′-cyclohexyl-1-(3-fluoropyrazolo [1,5-a]pyrimidin-7-yl)tetrahydro-3′H-spiro[piperidine-4,2′-pyrrolo[2,1-b]oxazol]-3′-one, TFA salt], the EC50 is < 25 nM.

As for `O=C(c1cccc(-c2ccccc2)n1)N1CCC2(CC1)O[C@@H]1CC[C@@H](c3cc(F)cc(F)c3)N1C2=O` [Example 6.97, (5′S,7a′R)-5′-(3,5-difluorophenyl)-1-(6-phenylpyridine-2-carbonyl)tetrahydro-3′H-spiro[piperidine-4,2′-pyrrolo[2,1-b] [1,3]oxazol]-3′-one], the 50% effective concentration (EC50) is < 25 nM.

On to `COc1nc(N2CCC3(CC2)O[C@@H]2CC[C@@H](c4ccccc4)N2C3=O)ncc1-c1ncco1` [Example 21.10, (5′S,7a′R)-1-[4-methoxy-5-(1,3-oxazol-2-yl)pyrimidin-2-yl]-5′-phenyltetrahydro-3′H-spiro[piperidine-4,2′-pyrrolo[2,1-b][1,3]oxazol]-3′-one], for which the EC50 is < 25 nM.

For `O=C(c1ccc(F)c(F)n1)N1CCC2(CC1)O[C@@H]1CC[C@@H](c3cc(F)cc(F)c3)N1C2=O` [Example 6.94, (5′S,7a′R)-5′-(3,5-difluorophenyl)-1-(5,6-difluoropyridine-2-carbonyl)tetrahydro-3′H-spiro[piperidine-4,2′-pyrrolo[2,1-b] [1,3]oxazol]-3′-one], the EC50 turned out to be 30.5 nM.

As to `O=C1N2[C@H](CC13CCN(c1cc(F)ccn1)CC3)OC[C@H]2c1ccccc1` [Example 11.2, (3′R,7a′S)-1-(4-fluoropyridin-2-yl)-3′-phenyltetrahydro-5′H-spiro[piperidine-4,6′-pyrrolo[2,1-b][1,3]oxazol]-5′-one], the EC50 amounted to 295 nM.

For `COc1ccc(N2CCC3(CC2)O[C@@H]2CC[C@@H](c4cc(F)cc(F)c4)N2C3=O)n2nccc12` [Example 19.1, (5′S,7a′R)-5′-(3,5-Difluorophenyl)-1-(4-methoxypyrazolo[1,5-a]pyridin-7-yl)tetrahydro-3′H-spiro[piperidine-4,2′-pyrrolo[2,1-b]oxazol]-3′-one, TFA], the EC50 was < 25 nM.

Turning to `COc1cccc([C@@H]2CC[C@H]3OC4(CCN(c5cc(C#N)ncn5)CC4)C(=O)N32)c1` [Example 20.3, 6-[(5′S,7a′R)-5′-(3-methoxyphenyl)-3′-oxotetrahydro-1H,3′H-spiro[piperidine-4,2′-pyrrolo[2,1-b][1,3]oxazol]-1-yl]pyrimidine-4-carbonitrile], the EC50 was found to be 394 nM.
